Experimental data taken from US8974848B1, “Ingestible product and method for enhancing the appearance and quality of teeth in-vivo” (priority 2008, dated 2015).

B1: Papain: protein-splitting enzyme, plant protease (protein, UniProt P00784 134-345, looked up)
Papain: IPEYVDWRQKGAVTPVKNQGSCGSCWAFSAVVTIEGIIKIRTGNLNEYSEQELLDCDRRSYGCNGGYPWSALQLVAQYGIHYRNTYPYEGVQRYCRSREKGPYAAKTDGVRQVQPYNEGALLYSIANQPVSVVLEAAGKDFQLYRGGIFVGPCGNKVDHAVAAVGYGPNYILIKNSWGTGWGENGYIRIKRGTGNSYGVCGLYTSSFYPVKN

Experiments:
[1] = accelerated coffee staining test: hydroxyapatite disks immersed in concentrated coffee with or without additive; settings: 7 minutes immersion in coffee (11 grams grounds to 0.5 cups water); uniform scale, 0 = un-stained disk, 5 = coffee without additive
Procedure: Initially, an accelerated staining test was performed using a very strong coffee concentrate with short periods of immersion. This protocol emulates the actual oral staining process; i.e., live teeth aren't generally submerged in coffee for long periods of time since coffee is only held in the mouth for short periods of time, and the residues are rapidly diluted by saliva. In addition, coffee chemistry and pH changes rapidly due to temperature-excited oxidation—which results in significant acid formation in the first 20 minutes after brewing. As a result, coffee immersion in-vitro for times exceeding 20 minutes exposes test-items to a chemical environment which is not representative of that found in a mouth during a typical human consumption of coffee.
As one representative example of multiple tests using CHITOSAN NICOTINATE as an essential substance to prevent staining of hydroxyapatite (as found in tooth enamel), 0.02 grams of CHITOSAN NICOTINATE was placed in one of two containers of coffee brewed with 11.0 grams of coffee grounds to 0.5 cups water. Then disks made of hydroxyapatite were immersed in each container for 7 minutes time; and subsequently compared to establish the degree of staining. For meaningful comparisons of staining, the non-CHITOSAN NICOTINATE coffee was used as the dark stain standard, with an arbitrary value of 5. […]

[2] = stain reversal: coffee-stained hydroxyapatite disk immersed in brewed coffee containing additive; settings: previously coffee-stained disk immersed 15 minutes in brewed coffee with additive; original stain 100%, un-stained disk 0%
Procedure: In addition, when a previously-coffee-stained hydroxyapatite disk was half-immersed within the brewed coffee for 15 minutes, the coffee-immersed area was lightened by 10%, where the original stain is said to be 100% and an un-stained disk is said to be 0%.
As one example of multiple tests using protein-splitting enzymes as an essential ingredient to reverse staining of hydroxyapatite, 20 mg of Papain was placed in one container of coffee, which was then brewed with 11 grams of coffee grounds to 0.5 cups water. For this series of tests, only coffee-stained hydroxyapatite disks were then immersed in the freshly brewed coffee for 15 minutes time.

| Molecule | degree of staining of hydroxyapatite disks [1] | coffee-immersed stained area lightened by [2] |
| --- | --- | --- |
| CS(C)(=O)=O [METHYLSULFONYLMETHANE (DIMETHYLSULFONE), METHYLSULFONYLMETHANE] | 2 | – |
| B1 | – | 20% |
